Measured values from ChEMBL document CHEMBL4725363 (J Med Chem, 2020).
pIC50: −log10 of the molar value. Active and inactive are the calls of the source. The rule behind the calls is not given here.

Assays:
[1] = Cmax in Sprague-Dawley rat at 2.5 mg/kg, iv after 24 hrs by LC-MS/MS analysis; format: ADME, organism-based; set-up: route intravenous, time 24 hrs, dose 2.5 mg/kg; conditions: in vivo
[2] = Acute toxicity in KM mouse at 1000 to 1500 mg/kg, po administered as single dose measured every 24 hrs for 14 days; format: organism-based; conditions: in vivo, 336 h, dose 1000-1500 mg/kg, time 14 day
[3] = molecular target: Dual 3',5'-cyclic-AMP and -GMP phosphodiesterase 11A (Homo sapiens, UniProt Q9HCR9); assay: Inhibition of PDE11A catalytic domain (unknown origin) using [3H]-cAMP or [3H]-[…] as substrate after 15 mins by liquid scintillation counting method
[4] = Cmax in Sprague-Dawley rat at 5 mg/kg, po after 24 hrs by LC-MS/MS analysis; format: ADME, organism-based; set-up: route oral, dose 5 mg/kg, time 24 hrs; conditions: in vivo
[5] = molecular target: cAMP and cAMP-inhibited cGMP 3',5'-cyclic phosphodiesterase 10A (Homo sapiens, UniProt Q9Y233); assay: Inhibition of human PDE10A catalytic domain (449 to 770 residues) using [3H]-cAMP as substrate after 15 mins by liquid scintillation counting method
[6] = AUC (0 to infinity) in Sprague-Dawley rat at 2.5 mg/kg, iv after 24 hrs by LC-MS/MS analysis; format: ADME, organism-based; set-up: route intravenous, time 24 hrs, dose 2.5 mg/kg; conditions: in vivo
[7] = Inhibition of human PDE5A1 D563A mutant expressed in Escherichia coli BL21 incubated for 15 mins using [3H]-cGMP as substrate by liquid scintillation counting method
[8] = Half life in Sprague-Dawley rat at 5 mg/kg, po after 24 hrs by LC-MS/MS analysis; format: ADME, organism-based; conditions: in vivo
[9] = test system: Rattus norvegicus; assay: Suppression of hypertension pressure in Wistar rat model of pulmonary hypertension at 20 mg/kg/day, po for 3 weeks; format: functional, organism-based
[10] = MRT (0 to t) in Sprague-Dawley rat at 5 mg/kg, po after 24 hrs by LC-MS/MS analysis; format: ADME, organism-based; conditions: in vivo
[11] = Tmax in Sprague-Dawley rat at 2.5 mg/kg, iv after 24 hrs by LC-MS/MS analysis; format: ADME, organism-based; conditions: in vivo
[12] = AUC (0 to infinity) in Sprague-Dawley rat at 5 mg/kg, po after 24 hrs by LC-MS/MS analysis; format: ADME, organism-based; set-up: route oral, time 24 hrs, dose 5 mg/kg; conditions: in vivo

Chain of Dual 3',5'-cyclic-AMP and -GMP phosphodiesterase 11A (Q9HCR9 whole entry, the tested form may be a part): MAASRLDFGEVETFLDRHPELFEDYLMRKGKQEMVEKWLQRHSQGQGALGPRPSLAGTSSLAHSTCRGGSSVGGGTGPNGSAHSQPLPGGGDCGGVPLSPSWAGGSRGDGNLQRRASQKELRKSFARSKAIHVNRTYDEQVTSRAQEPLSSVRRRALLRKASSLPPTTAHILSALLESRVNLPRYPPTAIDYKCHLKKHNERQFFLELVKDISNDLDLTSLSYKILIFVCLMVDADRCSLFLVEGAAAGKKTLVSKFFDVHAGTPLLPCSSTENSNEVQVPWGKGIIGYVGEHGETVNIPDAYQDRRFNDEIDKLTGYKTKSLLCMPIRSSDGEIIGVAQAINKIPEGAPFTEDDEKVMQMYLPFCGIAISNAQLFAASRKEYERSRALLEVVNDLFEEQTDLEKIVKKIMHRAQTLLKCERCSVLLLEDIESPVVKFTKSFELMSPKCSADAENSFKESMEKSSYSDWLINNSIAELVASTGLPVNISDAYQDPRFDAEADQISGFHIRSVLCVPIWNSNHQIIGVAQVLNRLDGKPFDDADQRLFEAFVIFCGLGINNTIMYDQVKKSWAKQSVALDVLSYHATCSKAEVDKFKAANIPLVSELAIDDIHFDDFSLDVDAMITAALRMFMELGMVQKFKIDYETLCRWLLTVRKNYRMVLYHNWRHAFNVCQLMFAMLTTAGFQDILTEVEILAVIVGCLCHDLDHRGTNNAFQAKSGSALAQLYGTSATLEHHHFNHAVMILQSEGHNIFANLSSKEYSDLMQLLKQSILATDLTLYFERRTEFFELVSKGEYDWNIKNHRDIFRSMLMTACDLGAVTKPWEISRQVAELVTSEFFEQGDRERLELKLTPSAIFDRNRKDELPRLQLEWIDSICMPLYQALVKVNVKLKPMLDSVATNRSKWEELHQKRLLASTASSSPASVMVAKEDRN
Chain of cAMP and cAMP-inhibited cGMP 3',5'-cyclic phosphodiesterase 10A (Q9Y233 whole entry, the tested form may be a part): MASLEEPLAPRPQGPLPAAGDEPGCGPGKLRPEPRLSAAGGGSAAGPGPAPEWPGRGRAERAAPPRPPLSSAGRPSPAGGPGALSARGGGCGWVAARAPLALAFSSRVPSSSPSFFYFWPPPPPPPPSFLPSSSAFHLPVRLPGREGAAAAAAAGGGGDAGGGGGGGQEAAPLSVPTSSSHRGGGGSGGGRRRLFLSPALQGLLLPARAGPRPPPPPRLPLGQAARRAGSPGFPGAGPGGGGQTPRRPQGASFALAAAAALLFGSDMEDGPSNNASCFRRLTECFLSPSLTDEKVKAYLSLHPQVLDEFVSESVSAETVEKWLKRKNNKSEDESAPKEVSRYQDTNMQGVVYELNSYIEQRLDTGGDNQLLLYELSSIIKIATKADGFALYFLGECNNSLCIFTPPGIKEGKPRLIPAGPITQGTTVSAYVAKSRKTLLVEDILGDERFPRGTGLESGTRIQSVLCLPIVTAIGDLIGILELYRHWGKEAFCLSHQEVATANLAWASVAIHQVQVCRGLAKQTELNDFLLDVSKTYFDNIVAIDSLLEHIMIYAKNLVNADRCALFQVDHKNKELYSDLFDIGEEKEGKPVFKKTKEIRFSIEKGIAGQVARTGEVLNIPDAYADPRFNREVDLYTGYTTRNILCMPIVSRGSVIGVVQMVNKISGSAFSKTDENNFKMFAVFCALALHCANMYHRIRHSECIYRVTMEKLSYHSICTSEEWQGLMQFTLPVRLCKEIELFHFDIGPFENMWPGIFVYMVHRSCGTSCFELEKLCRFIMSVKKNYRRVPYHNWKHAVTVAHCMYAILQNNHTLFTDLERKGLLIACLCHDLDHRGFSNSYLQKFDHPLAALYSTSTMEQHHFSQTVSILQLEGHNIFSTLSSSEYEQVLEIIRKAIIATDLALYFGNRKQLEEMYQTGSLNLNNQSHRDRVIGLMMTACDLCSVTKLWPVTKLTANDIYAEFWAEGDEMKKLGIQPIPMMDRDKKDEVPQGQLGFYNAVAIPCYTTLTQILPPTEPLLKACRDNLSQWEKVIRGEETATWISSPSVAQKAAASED

## COc1ccc2c3c([nH]c2c1)[C@@H]1N(CC3)C(=O)c2c(OC)cccc2N1C
[1]
  Cmax: 1800 ng/mL
[2]
  Activity: Non-Toxic
[3]
  pIC50: < 4.52
[4]
  Cmax: 54.4 ng/mL
[5]
  pIC50: 5.52
[6]
  AUC(0-inf): 520 ng·h/mL
[7]
  pIC50: 5.61
[8]
  half-life: 1.43 h
[9]
  Activity: Active
[10]
  MRT last at 24 h: 3.19 h
[11]
  Tmax: 4.98 min
[12]
  AUC(0-inf): 155 ng·h/mL
